Data reported in patent US10815276B2, “Cell penetrating peptides and methods of making and using thereof” (Entrada Therapeutics, Inc., priority 2014, dated 2020).
pIC50, pKd: −log10 of the molar value. Starred links: 1 amine or outer side, 2 acyl side, 3 side chain; linkers in the order of their positions; H or OH if unused. Positions of bridges follow the written chain, without caps; N, C: chain ends. Non-standard residues stand in square brackets, D forms with d. Residues, ends and D or L forms follow the SMILES beside them. Trimesoyl = O=C(c1cc(C(=O)[*:2])cc(C(=O)[*:3])c1)[*:1]; d(pT) = C[C@H](OP(=O)(O)O)[C@@H](N)C(=O)O; 2Nal = N[C@@H](Cc1ccc2ccccc2c1)C(=O)O; Pip = O=C(O)[C@@H]1CCCCN1; Dap = NC[C@H](N)C(=O)O; Sar = CNCC(=O)O

What was measured:
HeLa cells [1] = experiment: MTT proliferation assay with Pin1 inhibitors; format: cell-based, human; conditions: 3-day treatment at 20 μM
Protocol: HeLa cells (100 μL/each well, 5×10^4 cells/mL) were seeded in a 96-well culture plate and allowed to grow overnight in DMEM supplemented with 10% FBS. […] After that, 10 μL of a MTT stock solution (5 mg/mL) was added into each well. The plate was incubated at 37° C. for 4 h and 100 μL of SDS-HCl solubilizing solution was added into each well, followed by thorough mixing. The plate was incubated at 37° C. overnight and the absorbance of the formazan product was measured at 570 nm on a Molecular Devices Spectramax M5 plate reader. Each experiment was performed in triplicates and the cells untreated with peptide were used as control.

HeLa cells [2] = conditions: read-out: IC50 of HeLa cell growth; MTT
Text: The effect of peptide 37 on the growth of HeLa cells was examined by using the MTT cell viability assay.

Pin1 [3] = target: T1, Pin1 (Homo sapiens, UniProt Q13526, S16A/Y23A); experiment: FA competition with FITC-labeled inhibitor 5; format: binding; conditions: 0.1 μM labeled inhibitor 5, 1 μM Pin1
T1 construct: The full-length human S16A/Y23A mutant Pin1 was expressed and purified from E. coli; made in house
Protocol: FIGS. 32A and 32B display the competition for binding to Pin1 by inhibitors 5 and 7. Each reaction contained 0.1 μM FITC-labeled inhibitor 5, 1 μM Pin1, and 0-5 μM unlabeled inhibitor 5 […] or inhibitor 7 (FIG. 32B) and the FA value was measured and plotted against the competitor concentration.
(§1) [formula] where Y is the FA value at a given protein concentration x, L is the peptide concentration, Qb/Qf is the correction factor for fluorophore-protein interaction, Amax is the maximum FA value when all of the peptides are bound to protein, while Amin is the minimum FA value when all of the peptides are free. FA competition assay was performed by incubating 100 nM FITC-labeled Pin1 inhibitor 5 with 1 μM Pin1, followed by the addition of 0-5 μM unlabeled inhibitor. The FA values were measured similarly on a pate reader. IC50 values were obtained by plotting the FA values against the competitor concentration and curve fitting using the four-parameter dose-response inhibition equation (Prism 6, GraphPad).

HeLa cells [4] = experiment: Western blot of PML protein level; format: cell-based, human; conditions: 5 μM
Protocol: FIGS. 38A, 38B, 38C, and 38D display cellular activity of peptide 37. (FIG. 38A) Cellular uptake of peptides 1, 37, and 46 (5 μM) by HeLa cells as analyzed by flow cytometry. MFI, mean fluorescence intensity; none, untreated cells (no peptide). (FIG. 38B) Anti-proliferative effect of peptides 37, 46, and 47 on HeLa cells as measured by MTT assay. (FIG. 38C) Western blots showing the effect of peptides 1, 37 and 47 on the protein level of PML in HeLa cells. β-Actin was used as loading control. (FIG. 38D) Quantification of western blot results from (FIG. 38C). Data reported were after background subtraction and represent the mean±SD from 3 independent experiments.
Finally, to ascertain that Pin1 is the molecular target of peptide 37 in vivo, the intracellular protein level of a well-established Pin1 substrate, […] (PML), was examined by western blot analysis. Pin1 negatively regulates the PML level in a phosphorylation-dependent manner and inhibition of Pin1 activity is expected to stabilize PML and increase its intracellular level. […] The effect was already significant at 0.2 μM inhibitor (1.8-fold increase in the PML level) and plateaued at ˜1 μM (3.3-fold increase). Again, bicyclic peptide 47 had no effect under the same conditions, while peptide 1 (the positive control, at 5 μM) increased the PML level by 3.1-fold.

HeLa cells [5] = experiment: Cellular uptake by flow cytometry; format: cell-based, human; conditions: 5 μM FITC-labeled peptide, 2 h
Protocol: The cellular uptake efficiency of peptide 37, peptide 1, and a previously reported membrane-impermeable monocyclic Pin1 inhibitor (Table 18, peptide 46) was assessed by incubating HeLa cells with the FITC-labeled peptides (5 μM) for 2 h and quantifying the total intracellular fluorescence by flow cytometry analysis. […] By contrast, cells treated with peptides 1 and 37 gave MFI values of 2562 and 8792, respectively. Thus, peptide 37 is internalized by HeLa cells ˜4-fold more efficiently than peptide 1. Presumably, the negative charged phosphate group of peptide 1 interacted electrostatically with the positively charged CPP motif and reduced the cellular uptake efficiency of the latter.

Pin1 [6] = target: T1, Pin1; experiment: Fluorescence anisotropy binding to Pin1
Protocol: The gene coding for the catalytic domain of PTP1B (amino acids 1-321) was amplified by the polymerase chain reaction using PTP1B cDNA as template and oligonucleotides 5′-[…]-3′ and 5′-[…]-3′ as primers. […] Expression and purification of the ybbR-tagged PTP1B were carried out as previously described (Ren, L et al. Biochemistry 2011, 50, 2339-2356). […] The reaction mixture was passed through a G-25 fast-desalting column equilibrated in 30 mM HEPES, pH 7.4, 150 mM NaCl to remove any free dye molecules. The full-length human S16A/Y23A mutant Pin1 was expressed and purified from E. coli as previously described (Liu, T et al. J. Med. Chem. 2010, 53, 2494-2501).
FA experiments were carried out by incubating 100 nM FITC-labeled peptide with varying concentrations of protein in 20 mM HEPES (pH 7.4), 150 mM NaCl, 2 mM magnesium acetate, and 0.1% bovine serum albumin (BSA) for 2 h at room temperature. The FA values were measured on a Molecular Devices Spectramax M5 plate reader, with excitation and emission wavelengths at 485 and 525 nm, respectively. Equilibrium dissociation constants (KD) were determined by plotting the FA values as a function of protein concentration and fitting the curve to the following equation:
as §1

[7] = system: mouse ventricular cardiac myocytes; experiment: Live-cell confocal microscopy of cardiomyocytes; format: cell-based; conditions: 5 μM peptide or 6 μM conjugate, 3 h
Protocol: FIGS. 35A, 35B, 35C, and 35D display live cell confocal images of mouse ventricular cardiac myocytes after treatment for 3 h with 5 μM c(FΦRRRRQ)-K(FITC) (FIG. 35A) and c(fΦRrRrQ)-K(FITC) (FIG. 35B).
The disclosed cyclic CPPs are very effective in delivering proteins into cardiomyocytes. Fluorescein isothiocyanate (FITC)-labeled cyclic CPPs [c(FΦRRRRQ)-K(FITC)-NH2 and c(fΦRrRrQ)-K(FITC)-NH2] were synthesized and their internalization into mouse ventricular cardiac myocytes was tested by treating the cells with 5 μM FITC-labeled peptide for 3 h. After washing away the extracellular peptides, the internalization of CPPs was examined by fluorescent live-cell confocal microscopy. […] Whether the cyclic CPPs are capable of transporting full-length proteins into cardiac muscle cells was tested. Calmodulin (with an engineered Thr5Cys), a multifunctional calcium-binding messenger protein, was conjugated to c(FΦRRRRQ)-C-NH2 at the Cys residue near N-terminus through a disulfide bond. The disulfide exchange reaction is highly specific, efficient, and reversible. Further, upon entering the cytosol of cells, the disulfide linkage is expected to be reduced to release the native protein (FIG. 35c). The CPP-protein conjugate was chemically labeled on amino-groups with cyanine3, which permits visualization of the internalized calmodulin. […]

T1 sequence (Q13526 whole entry S16A/Y23A): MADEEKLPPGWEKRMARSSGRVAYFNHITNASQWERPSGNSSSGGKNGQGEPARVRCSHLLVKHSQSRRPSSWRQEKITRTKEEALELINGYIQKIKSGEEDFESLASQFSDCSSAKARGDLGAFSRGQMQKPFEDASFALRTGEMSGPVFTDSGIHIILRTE

Compound | Inhibition of cell growth (HeLa cells [1]) | pIC50 (HeLa cells [2]) | Competition with FITC-labeled inhibitor 5 for binding to Pin1 (Pin1 [3]) | Increase in the PML level (HeLa cells [4]) | Mean fluorescence intensity (MFI) (HeLa cells [5]) | Improvement of inhibitor potency vs peptide 6 (Pin1 [6]) | pKd (Pin1 [6]; FITC-labeled peptide, FA analysis) | Internalization into cardiac muscle cells (confocal) [7]
C[C@@H]1NC(=O)[C@H](CCCNC(=N)N)NC(=O)[C@H](Cc2ccc3ccccc3c2)NC(=O)[C@@H]2CCCCN2C(=O)[C@@H]([C@H](C)OP(=O)(O)O)NC(=O)CN(C)C(=O)[C@@H](C)NC(=O)c2cc3cc(c2)C(=O)NC[C@H](NC(=O)[C@@H](C)NC1=O)C(=O)N[C@@H](Cc1ccccc1)C(=O)N[C@@H](Cc1ccc2ccccc2c1)C(=O)N[C@@H](CCCNC(=N)N)C(=O)N[C@@H](CCCNC(=N)N)C(=O)N[C@@H](CCCNC(=N)N)C(=O)N[C@@H](CCCNC(=N)N)C(=O)N[C@H](C(=O)N[C@@H](CCCCN)C(N)=O)CNC3=O [Peptide 1, bicyclo[Tm-(D-Ala-Sar-D-pThr-Pip-Nal-Arg-Ala-D-Ala)-Dap-(Phe-Nal-Arg-Arg-Arg-Arg-Dap)]-Lys] ([dA][Sar][d(pT)][Pip][2Nal]RA[dA][Dap]F[2Nal]RRRR[Dap]K-NH2; linker N-9-16 via Trimesoyl) | 45% | 5.74 | competed | 3.1 fold | 2562 | ~2 fold | 7.14 | 
c(fΦRrRrQ)-K(FITC)-NH2 |  |  |  |  |  |  |  | efficient internalization
